Several values for one entry are separate records, joined by “and”; a condition that tells them apart may be missing. Equal values may be shown once.
How the values were obtained:
[1] = test system: Human umbilical artery endothelial cells (HUAECs); test: Transfection of HUAECs with lipoplexes, β-galactosidase reporter assay; type: cell-based; settings: HUAEC cells in vitro; CMV-β-galactosidase plasmid; β-galactosidase activity 24 h after transfection
Description: Human umbilical artery endothelial cells (HUAECs) were obtained from Cambrex (Walkersville, Md.) were and maintained in EGM-2 MV containing 5% fetal bovine serum (FBS) (Cambrex) at 37° C. with 5% CO2. At confluence, the cells were passaged using 0.25 mg/ml Trypsin/EDTA (Cambrex) and were used at passages 5-10 for these experiments. It is noted that human endothelial cells, and particularly HUAECs, are known in the art to be difficult to transfect (see, Teifel, et al., Endothelium, New York, 5, 21-35 (1997); Krotz et al., J. Vasc. Res., 40:425-434 (2003); and Tanner et al., Cardiovascular Research, 35:522-528 (1997)) all of which are herein incorporated by reference. For example, it has been reported that the level of transfection for a reporter gene in human umbilical vein endothelial cells is less than 1% of that of HeLa cells (Edgell et al., BioTechniques, 25:264-272 (1998), herein incorporated by reference).
The cells were seeded in 96-well plates at 24 h before transfection at densities appropriate to give about 80% confluence at the time of transfection. CMV-β-galactosidase plasmid was purchased from Clontech Laboratories Inc. (Palo Alto, Calif.) and propagated and purified by Bayou Biolabs (Harahan, La.). […]

[2] = DSC of hydrated cationic lipid dispersions and binary phase diagrams; type: physicochemical; settings: for melting transition Tm (solid-liquid crystalline): hydrated dispersions, DSC heating 30° C./h
Description: (§1) Chloroform solutions of cationic lipids were mixed in glass vials at the desired ratios, solvent was removed with a N2 stream and, subsequently, high vacuum. The lipid mixtures were hydrated in PBS (50 mM phosphate buffer, 100 mM NaCl, pH 7.2) overnight at room temperature and vortex-mixed for several minutes; then they were subjected to several cycles of freezing and thawing. Samples were subsequently equilibrated overnight at room temperature before measurement.
DSC measurements were performed using a VP-DSC Microcalorimeter (MicroCal Inc., Northampton, Mass.) at 30° C./h. Thermograms were analyzed using OriginLab (Northampton, Mass.) software. The onset and the completion temperatures of the phase transitions needed for the construction of the phase diagram were determined by the intersections of the peak slopes with the baseline on the thermograms. The maximums of the heat capacity curves were taken as the phase transition temperatures of the pure components. For asymmetric or split line shapes of the composite aggregates, the transition temperature was defined as that temperature at which the area of the endotherm was divided into equal halves.

[3] = Synchrotron small-angle X-ray diffraction (SAXD) on heating; type: physicochemical; settings: SAXD heating scans 20-90° C.
Description: as §1
Measurements were performed at Argonne National Laboratory, Advanced Photon Source, DND-CAT (beamline 5-IDD) and BioCAT (beamline 18-ID), using 12 keV X-rays, as previously described [1 R. Koynova, R. C. MacDonald, Mixtures of Cationic Lipid O-Ethylphosphatidylcholine With Membrane Lipids and DNA: Phase Diagrams, Biophys. J. 85 (2003) 2449-2465]. The lipid concentration of the dispersions was 20 wt %. Samples were filled into glass capillaries (Charles Supper Co., Natick, Mass.) and flame-sealed. A Linkam thermal stage (Linkam Sci Instruments, Surrey, England) provided temperature control. Linear heating and cooling scans were performed at rates of 1-5° C./min. Exposure times were typically 0.5 sec. Data were collected using a MAR-CCD detector. Sample-to-detector distance was 1.8-2 m. […] Products of lipid degradation were not detected in these samples, and radiation damage of the lipids was not evident from their X-ray patterns.

Row | temperature of solid-liquid crystalline (lamellar) transition on heating [3] | SMILES | transfection activity [1] | phase at physiological temperature (37° C.) according to phase diagram [2] | melting transition Tm (solid-liquid crystalline) [2]
1 | – | CCCCCCCCCCCCCC(=O)OC[C@H](COP(=O)(OCC)OCC[N+](C)(C)C)OC(=O)CCCCCCCCCCCCC (some centres unmarked) [EDMPC] | better transfection agents than EDPPC | liquid crystalline phase | 24 °C
2 | – | CCCCCCCCCCCCCCCC(=O)OC[C@H](COP(=O)(OCC)OCC[N+](C)(C)C)OC(=O)CCCCCCCCCCCCCCC (some centres unmarked) [EDPPC] | still transfects DNA into cells | solid phase | 42 °C
3 | 25 °C and ~26 °C | CCCCCCCCCCCCCC[N+](C)(C)CCCCCCCCCCCCCC.[Br-] [diC14DAB, Ditetradecyldimethylammonium-bromide] | – | – | 26 °C
4 | 47 °C | CCCCCCCCCCCCCCCCCC[N+](C)(C)CCCCCCCCCCCCCCCCCC.[Br-] [diC18DAB, dioctadecyldimethylammonium-bromide] | – | solid phase | ~50 °C
